The subject of data set [1] is female C57BL/6 mice with intrafemoral E0771 breast carcinoma. The data set can be described thus: E0771 breast cancer-induced bone cancer pain model. Format: in vivo, mouse. To be noted: for bone destruction scored from X-ray images: E0771-bearing femora; for body weight / mechanical allodynia, cold allodynia and spontaneous pain: E0771 model. The protocol:
Bone cancer pain model. The murine cell lines LLC1, LL/2-Luc2 or E0771 were lightly digested using 0.05% trypsin, followed by centrifugation to remove poorly digested cell clusters. Cells were then resuspended in PBS at a concentration of 1×10^8 cells/ml. The inoculation was performed as previously described (Wang, K. et al. “PD-1 blockade inhibits osteoclast formation and murine bone cancer pain.” The Journal of clinical investigation, (2020); Wang, Z. et al. “Anti-PD-1 treatment impairs opioid antinociception in rodents and nonhuman primates.” Sci Transl Med 12 (2020)). Briefly, mice were anesthetized with 4% isoflurane and the left leg was shaved and the skin disinfected with 10% povidone-iodine and 75% ethanol. A superficial incision (0.5-1 cm) was made near the knee joint, exposing the patellar ligament. A new 25-gauge needle was inserted at the site of the intercondylar notch of the left femur into the femoral cavity, which was then replaced with a 10 μL microinjection syringe containing a 2 μL suspension of tumor cells (2×10^5) followed by 2 μL absorbable gelatin sponge solution to seal the injection site. The syringe contents were slowly injected into the femoral cavity over a 2-minute interval. To prevent further leakage of tumor cells outside of the bone cavity, the outer injection site was sealed with silicone adhesive (Kwik-Sil, World Precision Instruments, US). Animals with surgery related movement dysfunction or with outside bone tumor injection were excluded from the study.
Behavior tests. All the behavioral tests were conducted in a blinded manner and performed during between the hours of 9:00-16:00. Animals were habituated in a light and humidity controlled testing environment for at least 2 days prior to baseline testing. For Von Frey testing, mice were confined to individual 5×5 cm boxes placed on an elevated wire grid. A blinded experimenter stimulated their hindpaws using a series of von Frey filaments with logarithmically increasing stiffness (0.02-2.56 g, Stoelting). Each filament was applied perpendicularly to the central plantar surface. The 50% paw withdrawal threshold was determined using Dixon's up-down method. In addition, we also measured paw withdrawal frequency to repeated stimulation (10 times, with ˜1-2 minutes between each stimulation) using a subthreshold 0.16 g von Frey filament, which is a more sensitive method to detect mechanical allodynia. To measure cold allodynia, mice were similarly isolated to individual boxes on an elevated mesh floor, and a drop (˜20-30 μl) of acetone was applied to the plantar hindpaw. […] To measure locomotor function, we performed open field testing in which mice were placed in the center of a 45×45 cm chamber and locomotor activity was recorded by an overhead webcam connected to a laptop computer, and animals' movements were automatically tracked for 30 minutes using ANY-Maze. The total distance traveled and mean speed during the 30-minute period were analyzed.
In vivo X-ray radiography. Osteolytic bone destruction was continuously evaluated by radiography using the MultiFocus by Faxitron system (Faxitron Bioptics LLC, Tucson, Ariz.). Radiographs of tumor-bearing femora were rated for bone destruction on a 0-5 score scale based on previous study: 0 for normal bone at baseline without tumor inoculation; 1 for one to three radiolucent lesions indicative of bone destruction compared to baseline; 2 for increased number of lesions (three to six lesions) and loss of medullary bone; 3 for loss of medullary bone and erosion of cortical bone; 4 for full-thickness unicortical bone loss; 5 for full-thickness bicortical bone loss and displaced skeletal fracture. All radiographic image quantifications were completed by an experimenter who was blinded to the experimental conditions.
STING agonist treatment protects against breast cancer induced bone pain and bone destruction. […]

Another data set deals with naïve mice. Nature of the data set: Von Frey testing of mechanical thresholds in naïve mice (WT and knockout). Type of data set: in vivo, mouse. As to conditions: naïve mice; for dose exhibiting the largest increase in paw withdrawal thresholds: i.t.; for mechanical sensory thresholds (von Frey): i.t. injection. The protocol:
Reflexive-based sensory testing in mice: All behavioral testing in mice was performed in a specialized humidity- and light-controlled mouse behavior facility maintained at 21-24° C., with testing conducted between the hours of 8:00-16:00. Mice were habituated to the testing environment for at least 2 days prior to baseline testing. All tests were performed by an experimenter who was blinded to experimental conditions, including genotypes and drug treatment. For multi-day experiments using STING agonists, mice were tested in the same room at approximately the same time each day. To measure mechanical sensitivity, mice were confined to individual chambers with non-transparent borders on an elevated mesh rack, preventing mice from visualizing or interacting with one another during the testing period. Mouse hindpaws were stimulated with a series of von Frey filaments with logarithmically increasing stiffness (0.02-2.56 g, Stoelting), which was applied perpendicularly to the central plantar surface. We determined the 50% paw withdrawal threshold using the up-down method. […] To test cold sensitivity, mice were again placed on an elevated metal mesh floor in isolated chambers, and a ˜20 μl acetone drop was applied to the central plantar surface of the mouse hindpaw using a pipette.
For the experiments utilizing i.t. 2′3′-cGAMP and 3′3′-cGAMP complexed with Lipofectamine 2000 (ThermoFisher, 11668), 10 μg 2′3′-cGAMP or 3′3′-cGAMP was incubated at room temperature for 30 minutes in sterile PBS with 3 μl Lipofectamine 2000. In this case, the vehicle control was 3 μl Lipofectamine 2000 in PBS, as in a previous study which used this approach. […] For experiments utilizing rabbit anti-IFN-α or -β neutralizing antibodies, a polyclonal rabbit IgG antibody served as the control. Antibodies were utilized in vivo at 300 ng/mouse or in vitro at 300 ng/ml. Paclitaxel was administered via repeated i.p. injections every other day for 4 days at a dose of 2 mg/kg. For the whole mount DRG recordings, young mice (4-6 weeks) were administered a single 6 mg/kg dose one week prior to the experiment. All intrathecal injections were performed under brief anesthesia with 2-2.5% isoflurane. Drugs administered by intrathecal injection were preceded by shaving a small area on the back corresponding to the injection site, followed by spinal puncture using a 30-gauge needle between the L5-L6 levels to deliver a maximum of 5-10 μl into the cerebrospinal fluid. Successful intrathecal injection was always confirmed by a brisk tail-flick upon delivery. For the experiments involving intraplantar (i.pl.) injection, IFN-α was dissolved in sterile saline and administered at the concentrations indicated in the figures in a total volume of 20 μl, administered under 2-2.5% isoflurane anesthesia to minimize animal stress. For these experiments, vehicle (saline) or IFN-α were slowly and carefully expressed into the left dorsal hindpaw of anesthetized mice and allowed to perfuse the tissue for ˜20 seconds prior to removal of the needle. […] Mechanical sensory testing was done anteriorly and care was taken to avoid Von Frey filament stimulation of the injection site.

Entries after “also recorded” stand apart in the source; their conditions may differ.

As to `Nc1ncnc2c1ncn2[C@@H]1O[C@@H]2COP(=O)([S-])O[C@@H]3[C@H](O)[C@@H](COP([O-])(=S)O[C@H]2[C@H]1O)O[C@H]3n1cnc2c(N)ncnc21.[Na+].[Na+]` (stereo partly drawn) [ADU-S100, (2′-5′)-[P(R)]-5′-O-[(R)-hydroxymercaptophosphinyl]-P-thioadenylyl-adenosine cyclic dinucleotide], in data set [1], the “bone destruction scored from X-ray images” value is recorded as “could also attenuate bone destruction”; the body weight result is “had no effect on body weight”; the “mechanical allodynia, cold allodynia and spontaneous pain” value is “could markedly reduce mechanical allodynia, cold allodynia and spontaneous pain”. Also, in the data set with naïve mice, the “dose exhibiting the largest increase in paw withdrawal thresholds” value worked out at 25 µg and the “mechanical sensory thresholds (von Frey)” value is recorded as “induced dose-dependent antinociception”.
`Cc1ccc2c(=O)c3cccc(CC(=O)O)c3oc2c1C` [DMXAA, 2-(5,6-dimethyl-9-oxo-9H-xanthen-4-yl)acetic acid]: in data set [1], the “bone destruction scored from X-ray images” value is on record as “could also attenuate bone destruction”; the body weight entry was “had no effect on body weight”; the “mechanical allodynia, cold allodynia and spontaneous pain” value is “could markedly reduce mechanical allodynia, cold allodynia and spontaneous pain”. Further, in the data set on naïve mice, the “dose exhibiting the largest increase in paw withdrawal thresholds” value was 10 µg and the “mechanical sensory thresholds (von Frey)” value was “induced dose-dependent antinociception; also recorded: dose-dependent increase in paw withdrawal thresholds”.
